Experimental findings from patent publication US20260199325A1, “NOVEL SUBSTITUTED PYRAZINE-CARBOXAMIDE-IMIDAZOPYRIDINE DERIVATIVES” (Boehringer Ingelheim International GmbH, priority 2022, published 2026) are described below.

T1 sequence (Q14833 33-912): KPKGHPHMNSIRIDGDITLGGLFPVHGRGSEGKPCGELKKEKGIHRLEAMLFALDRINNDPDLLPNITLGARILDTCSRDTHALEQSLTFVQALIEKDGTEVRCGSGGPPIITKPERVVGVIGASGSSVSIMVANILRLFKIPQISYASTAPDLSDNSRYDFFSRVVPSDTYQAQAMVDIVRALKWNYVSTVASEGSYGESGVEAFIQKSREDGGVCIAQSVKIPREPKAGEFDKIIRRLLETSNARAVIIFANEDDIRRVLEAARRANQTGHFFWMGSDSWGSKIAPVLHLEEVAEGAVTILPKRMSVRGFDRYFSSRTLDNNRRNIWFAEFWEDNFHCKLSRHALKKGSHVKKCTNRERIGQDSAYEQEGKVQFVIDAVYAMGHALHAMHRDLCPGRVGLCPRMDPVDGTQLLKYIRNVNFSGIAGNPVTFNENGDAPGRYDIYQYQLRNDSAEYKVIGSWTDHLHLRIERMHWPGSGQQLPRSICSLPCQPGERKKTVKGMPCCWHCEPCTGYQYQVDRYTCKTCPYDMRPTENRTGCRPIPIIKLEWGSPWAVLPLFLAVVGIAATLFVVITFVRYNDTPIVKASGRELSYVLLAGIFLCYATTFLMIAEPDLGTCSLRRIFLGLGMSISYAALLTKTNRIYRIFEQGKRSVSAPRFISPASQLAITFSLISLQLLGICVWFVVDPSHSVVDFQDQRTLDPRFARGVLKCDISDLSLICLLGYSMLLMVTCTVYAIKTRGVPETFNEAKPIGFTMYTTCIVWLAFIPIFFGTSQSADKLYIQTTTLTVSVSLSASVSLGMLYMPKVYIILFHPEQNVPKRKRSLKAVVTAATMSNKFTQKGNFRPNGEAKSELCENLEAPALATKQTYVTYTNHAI

This assay has as its target T1, human metabotropic Glutamate 4 receptor (Homo sapiens, UniProt Q14833).
T1 construct: expressed in transfected cells; host or cells: HEK293
In words: In vitro testing of mGluR4 potency (Assay A), cAMP HTRF in HEK293 cells. The class given is cell-based. The following applies: Table 2; HEK293 cell overexpressing human mGluR4; 10 uM L-Glutamic acid, 1 uM forskolin. The method, then:
A. In Vitro Testing of mGluR4 Potency
The in vitro activity of the compounds according to the invention may be investigated as follows:
The HEK293 cell overexpressing the human metabotropic Glutamate 4 receptor were thawed at 37° C. and immediately diluted with cell culture medium. After centrifugation, the cell pellet is re-suspended in medium and then distributed from a stirred spinner flask into the wells of the assay plate. The plates are incubated for one hour at room temperature before they are incubated for 24 hours at 37° C./5% C02. After washing the cells in the plate three times with 80 uL HBSS/HEPES buffer (10 uL buffer remained in the wells after washing), 5 uL per well of compounds diluted in HBSS/HEPES buffer containing 0.2% BSA (final concentration: 0.1%) and 1 mM IBMX (final concentration: 0.5 mM) are added to the wells of the assay plate. Thereafter 5 uL per well of L-Glutamic acid (final concentration: 10 uM), forskolin (final concentration: 1 uM) and 1 mM IBMX (final concentration: 0.5 mM) dissolved in HBSS/HEPES buffer containing 0.2% BSA (final concentration: 0.1%) are added to the assay plate (final DMSO concentration: 1%). Several wells of the assay plate are used either for the positive and the negative controls or for the cAMP standard curve. The assay plate is incubated for 30 minutes at room temperature. Then 5 ul per well of Anti-cAMP-Antibody-d2 solution and 5 ul per well of cAMP-Europium Cryptate dilution are added to all wells of the plate and the plate is incubated another 60 minutes light protected at room temperature. The emission at 615 nm and 665 nm (Excitation wavelength: 320 nm) are measured on the EnVision™ reader (PerkinElmer). The ratio between the emission at 665 nm and 615 is calculated by the reader. The whole assay is performed in the dark or under green light.
The cAMP standard is prepared by diluting the cAMP stock solution with HBSS/Hepes buffer: 5 μl/well of the cAMP dilutions (in HBSS/Hepes buffer containing 1 mM IBMX and 0.2% BSA-final concentration: 0.5 mM IBMX and 0.1% BSA) are added to 10 ul/well HBSS/Hepes buffer plus 5 ul/well 4% DMSO in HBSS/Hepes containing 0.2% BSA (final DMSO concentration: 1%-like in the wells containing compounds) in the wells of the assay plate. The final cAMP concentrations in the assay plate were: 0, 0.17, 0.69, 2.78, 11.1, 44.5, 178, and 712 nM (two wells/cAMP concentration).
Each assay microtiter plate contained also wells with vehicle controls instead of compound as controls for L-Glutamic acid induced signal (negative control; 100% CTL; 10 uM L-Glutamic acid+1 uM forskolin+0.5 mM IBMX+1% DMSO) and wells with vehicle controls without L-Glutamic acid as controls for non-specific changes in signal (positive control; 0% CTL; 0 uM L-Glutamic acid+1 uM forskolin+0.5 mM IBMX+1% DMSO).
The analysis of the data is performed by the calculation the ratio between the emission at 665 nm and the emission at 615 nm (Em665/Em615 ratio). Thereafter the signals of the compounds are normalized using the positive and negative controls by the following formula:
PoC=100×((Signal Sample−Positive Control)/(Negative Control−Positive Control))
In general terms: In TR-FRET formats the signal depends on donor and acceptor labels being close together.
On to `CO[C@H](C)[C@H](NC(=O)c1cnc(C(F)F)cn1)c1nc2cc(C(F)(F)F)cnc2n1C(C)C` [Example 24, 5-(difluoromethyl)-N-[(1R)-2-methoxy-1-[3-(propan-2-yl)-6-(trifluoromethyl)-3H-imidazo[4,5-b]pyridin-2-yl]propyl]pyrazine-2-carboxamide], for which the concentration for half-maximal inhibition (IC50) came out at 10 nM. The figure for `Cc1cnc(C(=O)N[C@H](c2nc3cc(Cl)cnc3n2C(C)C)C2(O)CCC2)cn1` [Example 25, N-[(R)-[6-chloro-3-(propan-2-yl)-3H-imidazo[4,5-b]pyridin-2-yl](1-hydroxycyclobutyl)methyl]-5-methylpyrazine-2-carboxamide] is 12 nM; for `Cc1c(C#N)cnc2c1nc([C@@H](NC(=O)c1cnc(C(F)F)cn1)C1(O)CCC1)n2C(C)C` [Example 26, N-[(R)-[6-cyano-7-methyl-3-(propan-2-yl)-3H-imidazo[4,5-b]pyridin-2-yl](1-hydroxycyclobutyl)methyl]-5-(difluoromethyl)pyridazine-2-carboxamide] it is 13 nM. With `CC(C)n1c([C@@H](NC(=O)c2cnc(C(F)F)cn2)C2CC2)nc2cc(C(F)(F)F)ncc21` [Example 27, N-[(S)-cyclopropyl[3-(propan-2-yl)-6-(trifluoromethyl)-3H-imidazo[4,5-c]pyridin-2-yl]methyl]-5-(difluoromethyl)pyrazine-2-carboxamide] the figure was 31 nM. The figure for `Cc1cnc(C(=O)N[C@H](c2nc3c(C)c(C#N)cnc3n2C(C)C)C2CC2)cn1` [Example 28, N-[(S)-[6-cyano-7-methyl-3-(propan-2-yl)-3H-imidazo[4,5-b]pyridin-2-yl](cyclopropyl)methyl]-5-methylpyrazine-2-carboxamide] is 6 nM; for `CC(C)n1c([C@@H](NC(=O)c2cnc(C(F)F)cn2)C2CCC2)nc2cc(C#N)cnc21` [Example 30, N-[(S)-[6-cyano-3-(propan-2-yl)-3H-imidazo[4,5-b]pyridin-2-yl](cyclobutyl)methyl]-5-(difluoromethyl)pyrazine-2-carboxamide] it is 14 nM.

Consider `COc1c(C#N)cnc2c1nc([C@@H](NC(=O)c1cnc(C)cn1)C1CC1)n2C(C)C` [Example 31], for which the 50% inhibitory concentration (IC50) is 14 nM. With `CC(C)n1c([C@@H](NC(=O)c2cnc(C(F)F)cn2)C2CC2)nc2cc(F)cnc21` [Example 32, N-[(S)-cyclopropyl[6-fluoro-3-(propan-2-yl)-3H-imidazo[4,5-b]pyridin-2-yl]methyl]-5-(difluoromethyl)pyrazine-2-carboxamide] the figure was 15 nM; with `Cc1cnc(C(=O)N[C@@H](CC2CC2)c2nc3cc(C#N)c(C)nc3n2C(C)C)cn1` [Example 33, N-[(1S)-1-[6-cyano-5-methyl-3-(propan-2-yl)-3H-imidazo[4,5-b]pyridin-2-yl]-2-cyclopropylethyl]-5-methylpyrazine-2-carboxamide], 15 nM. Turning to `Cc1cnc(C(=O)N[C@H](c2nc3cc(Cl)cnc3n2C(C)C)[C@H]2CCCO2)cn1` [Example 34, N-[(R)-[6-chloro-3-(propan-2-yl)-3H-imidazo[4,5-b]pyridin-2-yl][(2R)-oxolan-2-yl]methyl]-5-methylpyrazine-2-carboxamide], the 50% inhibitory concentration (IC50) came out at 16 nM. As for `O=C(N[C@H](c1nc2cc(C(F)(F)F)ncc2n1CC(F)F)C1CC1)c1cnc(C(F)F)cn1` [Example 35, N-[(S)-cyclopropyl[3-(2,2-difluoroethyl)-6-(trifluoromethyl)-3H-imidazo[4,5-c]pyridin-2-yl]methyl]-5-(difluoromethyl)pyrazine-2-carboxamide], half-maximal inhibition (IC50) was put at 18 nM. The figure for `Cc1c(C#N)cnc2c1nc([C@@H](NC(=O)c1cnc(C(F)F)cn1)[C@@H]1CCCO1)n2C(C)C` [Example 36, N-[(R)-[6-cyano-7-methyl-3-(propan-2-yl)-3H-imidazo[4,5-b]pyridin-2-yl][(2S)-oxolan-2-yl]methyl]-5-(difluoromethyl)pyrazine-2-carboxamide] is 18 nM; for `COC(C)(C)[C@H](NC(=O)c1cnc(C)cn1)c1nc2cccnc2n1C(C)C` [Example 37, N-[(1R)-2-methoxy-2-methyl-1-[3-(propan-2-yl)-3H-imidazo[4,5-b]pyridin-2-yl]propyl]-5-methylpyrazine-2-carboxamide] it is 19 nM; for `Cc1cnc(C(=O)N[C@@H](C[C@@H]2CCCO2)c2nc3c(C)c(C#N)cnc3n2C(C)C)cn1` [Example 38, N-[(1S)-1-[6-cyano-7-methyl-3-(propan-2-yl)-3H-imidazo[4,5-b]pyridin-2-yl]-2-[(2S)-oxolan-2-yl]ethyl]-5-methylpyrazine-2-carboxamide] it is 19 nM.

As to `Cc1cnc(C(=O)N[C@H](c2nc3c(C)nc(C(F)(F)F)cc3n2CC(F)F)C2CC2)cn1` [Example 39, N-[(S)-cyclopropyl[1-(2,2-difluoroethyl)-4-methyl-6-(trifluoromethyl)-1H-imidazo[4,5-c]pyridin-2-yl]methyl]-5-methylpyrazine-2-carboxamide], the 50% inhibitory concentration (IC50) was 21 nM. With `Cc1cnc(C(=O)N[C@H](c2nc3c(C)c(C#N)cnc3n2C(C)C)[C@H]2CCCO2)cn1` [Example 40, N-[(R)-[6-cyano-7-methyl-3-(propan-2-yl)-3H-imidazo[4,5-b]pyridin-2-yl][(2R)-oxolan-2-yl]methyl]-5-methylpyrazine-2-carboxamide] the figure was 21 nM; with `Cc1cnc(C(=O)N[C@H](c2nc3cc(Cl)cnc3n2C(C)C)[C@@H]2CCCO2)cn1` [Example 41, N-[(R)-[6-chloro-3-(propan-2-yl)-3H-imidazo[4,5-b]pyridin-2-yl][(2S)-oxolan-2-yl]methyl]-5-methylpyrazine-2-carboxamide], 21 nM; with `CO[C@H](C)[C@H](NC(=O)c1cnc(C)cn1)c1nc2c(C)c(C#N)cnc2n1C(C)C` [Example 42, N-[(1R,2R)-1-[6-cyano-7-methyl-3-(propan-2-yl)-3H-imidazo[4,5-b]pyridin-2-yl]-2-methoxypropyl]-5-methylpyrazine-2-carboxamide], 21 nM. With `Cc1cnc(C(=O)N[C@H](c2nc3cnc(C(F)(F)F)cc3n2C(C)C)C2CC2)cn1` [Example 43, N-[(S)-cyclopropyl[1-(propan-2-yl)-6-(trifluoromethyl)-1H-imidazo[4,5-c]pyridin-2-yl]methyl]-5-methylpyrazine-2-carboxamide] the figure was 24 nM. With `Cc1cnc(C(=O)N[C@H](c2nc3cc(F)cnc3n2C(C)C)C2CC2)cn1` [Example 44, N-[(S)-cyclopropyl[6-fluoro-3-(propan-2-yl)-3H-imidazo[4,5-b]pyridin-2-yl]methyl]-5-methylpyrazine-2-carboxamide] the figure was 26 nM; with `CCn1c([C@@H](NC(=O)c2cnc(C)cn2)C2CC2)nc2c(C)nc(C(F)(F)F)cc21` [Example 45, N-[(S)-cyclopropyl[1-ethyl-4-methyl-6-(trifluoromethyl)-1H-imidazo[4,5-c]pyridin-2-yl]methyl]-5-methylpyrazine-2-carboxamide], 33 nM. `O=C(N[C@H](c1nc2cnc(C(F)(F)F)cc2n1CC(F)F)C1CC1)c1cnc(C(F)F)cn1` [Example 46, N-[(S)-cyclopropyl[1-(2,2-difluoroethyl)-6-(trifluoromethyl)-1H-imidazo[4,5-c]pyridin-2-yl]methyl]-5-(difluoromethyl)pyrazine-2-carboxamide] came in with an IC50 of 41 nM.

As usually defined, the IC50 is the concentration needed to halve the response being measured. High values mean a need for much substance, low ones inhibition by little substance.
